# Laboratory results: US10144705B2 (Commissariat a l'energie atomique et aux energies …, priority 2012, dated 2018)
# What was measured:
# [1] = cited from earlier work
# [2] = tested on: in-vitro cell-based BBB model (coculture of glial cells and brain endothelial cells); type: in vitro ADME
# Method: The in-vitro cell-based BBB model which is used to assess the permeability of fatty esters consists in a coculture of glial cells and brain endothelial cells. A transport buffer (150 mM NaCl, 5.2 mM KCl, 2.2 mM CaCl2, 0.2 mM MgCl2, 6 mM NaHCO3, 2.8 mM glucose and 5 mM Hepes) is added: 1500 μl to the basolateral chamber (which represents the cerebral parenchyma) and 500 μl to the apical chamber (which represents the blood). The fatty esters are introduced in the apical compartment. After 60 min, aliquots are removed from the apical and basolateral chambers for drug-concentration determination. The percentage of drug from the initial dosage that crossed BBB is calculated as follows: P (%)=[(Bf×1500)/(A0×500)]×100 where Bf is the amount of tested compounds in the basolateral compartment at the end point. A0 is the initial amount in the apical compartment at time point 0.
permeability through the blood brain barrier [2],translocation within brain endothelial cells or in the basal compartment [2],SMILES,oral bioavailability [1]
,,"CN(CC(=O)O)C(=N)N [creatine, 2-1(methylguanidino) acetic acid]",low
not,no translocation,CCOC(=O)CN(C)C(=N)N [C2],
